# Measurements taken from patent US20220024906A1, “COMPOUNDS AND COMPOSITIONS FOR TREATING CONDITIONS ASSOCIATED WITH STING ACTIVITY” (IFM Due, Inc., priority 2020, published 2022).
# Molecular target: T1, hSTING (Homo sapiens, UniProt Q86WV6, G230A/H232R/R293Q/R71H)
# T1 construct: host or cells: THP1-Dual KO-IFNAR2 cells
# Test: STING reporter assay (luciferase) in THP1-Dual KO-IFNAR2 cells stimulated with 2′3′cGAMP
# Format: cell-based
# Conditions: 15 μM 2′3′cGAMP transfected, 24 h, luciferase reporter activity
# Experimental: STING pathway activation by the compounds described herein was measured using THP1-Dual™ cells (KO-IFNAR2).
# THP1-Dual™ KO-IFNAR2 Cells (obtained from invivogen) were maintained in RPMI, 10% FCS, 5 ml P/S, 2 mM L-glut, 10 mM Hepes, and 1 mM sodium pyruvate. Compounds were spotted in empty 384 well tissue culture plates (Greiner 781182) by Echo for a final concentration of 0.0017-100 μM. Cells were plated into the TC plates at 40 μL per well, 2×10E6 cells/mL. For activation with STING ligand, 2′3′cGAMP (MW 718.38, obtained from Invivogen), was prepared in Optimem media.
# The following solutions were prepared for each 1×384 plate: • Solution A: 2 mL Optimem with one of the following stimuli: • 60 μL of 10 mM 2′3′cGAMP→150 μM stock • Solution B: 2 mL Optimem with 60 μL Lipofectamine 2000→Incubate 5 min at RT
# 2 mL of solution A and 2 ml Solution B was mixed and incubated for 20 min at room temperature (RT). 20 μL of transfection solution (A+B) was added on top of the plated cells, with a final 2′3′cGAMP concentration of 15 μM. The plates were then centrifuged immediately at 340 g for 1 minute, after which they were incubated at 37° C., 5% CO2, >98% humidity for 24 h. Luciferase reporter activity was then measured. EC50 values were calculated by using standard methods known in the art.
# Luciferase reporter assay: 10 μL of supernatant from the assay was transferred to white 384-plate with flat bottom and squared wells. One pouch of QUANTI-Luc™ Plus was dissolved in 25 mL of water. 100 μL of QLC Stabilizer per 25 mL of QUANTI-Luc™ Plus solution was added. 50 μL of QUANTI-Luc™ Plus/QLC solution per well was then added. Luminescence was measured on a Platereader (e.g., Spectramax I3X (Molecular Devices GF3637001)).
# Luciferase reporter activity was then measured. EC50 values were calculated by using standard methods known in the art.
# T1 sequence (Q86WV6 whole entry R71H/G230A/H232R/R293Q): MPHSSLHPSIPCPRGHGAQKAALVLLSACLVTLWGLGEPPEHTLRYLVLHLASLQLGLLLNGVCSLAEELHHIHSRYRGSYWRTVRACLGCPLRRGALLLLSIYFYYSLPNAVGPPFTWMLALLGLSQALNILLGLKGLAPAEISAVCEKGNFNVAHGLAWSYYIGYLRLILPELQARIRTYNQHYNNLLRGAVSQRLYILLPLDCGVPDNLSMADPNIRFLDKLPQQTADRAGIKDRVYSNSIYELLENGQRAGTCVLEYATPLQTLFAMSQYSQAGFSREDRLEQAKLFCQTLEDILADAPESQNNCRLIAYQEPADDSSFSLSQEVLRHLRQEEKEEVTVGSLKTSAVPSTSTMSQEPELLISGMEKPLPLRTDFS
row,EC50,Compound
1,200 to 1000 nM,"O=C(CCc1ccc(OC(F)(F)F)cc1)Nc1c[nH]c2cc(F)c(F)cc12 [Compound 104, N-(5,6-difluoro-1H-indol-3-yl)-3-(4-(trifluoromethoxy)phenyl)propanamide]"
2,5000 to 100000 nM,"C[C@H](NC1CCCCC1)C(=O)Nc1c[nH]c2cc(F)c(F)cc12 [Compound 113, (S)-2-(cyclohexylamino)-N-(5,6-difluoro-1H-indol-3-yl)propanamide]"
3,5000 to 100000 nM,"COc1ccc(CCC(=O)Nc2c[nH]c3cc(F)c(F)cc23)cn1 [Compound 116, N-(5,6-difluoro-1H-indol-3-yl)-3-(6-methoxypyridin-3-yl)propanamide]"
4,200 to 1000 nM,"Cc1ccc(OCCC(=O)Nc2c[nH]c3cc(F)c(F)cc23)cc1 [Compound 120, N-(5,6-difluoro-1H-indol-3-yl)-3-(p-tolyloxy)propanamide]"
5,1000 to 5000 nM,"Cc1cc(CC(=O)Nc2c[nH]c3cc(F)c(F)cc23)cnc1N1CCC(F)(F)CC1 [Compound 126, N-(5,6-difluoro-1H-indol-3-yl)-2-(6-(4,4-difluoropiperidin-1-yl)-5-methylpyridin-3-yl)acetamide]"
6,5000 to 100000 nM,"O=C(Cc1cccc(OC(F)F)c1)Nc1c[nH]c2cc(F)c(F)cc12 [Compound 127, N-(5,6-difluoro-1H-indol-3-yl)-2-(3-(difluoromethoxy)phenyl)acetamide]"
7,1000 to 5000 nM,"CC(Oc1ccc(OC(F)(F)F)cc1)C(=O)Nc1c[nH]c2cc(F)c(F)cc12 (stereo not drawn) [Compound 130, N-(5,6-difluoro-1H-indol-3-yl)-2-(4-(trifluoromethoxy)phenoxy)propanamide]"
8,5000 to 100000 nM,"COc1ccc(CC(=O)Nc2c[nH]c3cc(F)c(F)cc23)cc1C(F)(F)F [Compound 132, N-(5,6-difluoro-1H-indol-3-yl)-2-(4-methoxy-3-(trifluoromethyl)phenyl)acetamide]"
9,5000 to 100000 nM,"COc1ccc(CC(C)(C)C(=O)Nc2c[nH]c3cc(F)c(F)cc23)cc1 [Compound 133, N-(5,6-difluoro-1H-indol-3-yl)-3-(4-methoxyphenyl)-2,2-dimethylpropanamide]"
10,5000 to 100000 nM,"CC(C)(Oc1ccc(F)cc1)C(=O)Nc1c[nH]c2cc(F)c(F)cc12 [Compound 134, N-(5,6-difluoro-1H-indol-3-yl)-2-(4-fluorophenoxy)-2-methylpropanamide]"
11,200 to 1000 nM,"N#Cc1cccc(/C=C/C(=O)Nc2c[nH]c3cc(F)c(F)cc23)c1 [Compound 135, (E)-3-(3-cyanophenyl)-N-(5,6-difluoro-1H-indol-3-yl)acrylamide]"
12,200 to 1000 nM,"Cc1nnc(CC(=O)Nc2c[nH]c3ccc(-c4cnn(-c5ccc(C(F)(F)F)cc5)c4)cc23)o1 [Compound 138, 2-(5-methyl-1,3,4-oxadiazol-2-yl)-N-(5-(1-(4-(trifluoromethyl)phenyl)-1H-pyrazol-4-yl)-1H-indol-3-yl)acetamide]"
13,200 to 1000 nM,"O=C(CCc1cn[nH]c1)Nc1c[nH]c2ccc(-c3cnn(-c4ccc(C(F)(F)F)cc4)c3)cc12 [Compound 140, 3-(1H-pyrazol-4-yl)-N-(5-(1-(4-(trifluoromethyl)phenyl)-1H-pyrazo1-4-yl)-1H-indol-3-yl)propanamide]"
14,5000 to 100000 nM,"O=C(Cc1nnn[nH]1)Nc1c[nH]c2ccc(-c3cnn(-c4ccc(C(F)(F)F)cc4)c3)cc12 [Compound 141, 2-(1H-tetrazol-5-yl)-N-(5-(1-(4-(trifluoromethyl)phenyl)-1H-pyrazol-4-yl)-1H-indol-3-yl)acetamide]"
15,200 to 1000 nM,"O=C(CCn1ccnc1)Nc1c[nH]c2ccc(-c3cnn(-c4ccc(C(F)(F)F)cc4)c3)cc12 [Compound 142, 3-(1H-imidazol-1-yl)-N-(5-(1-(4-(trifluoromethyl)phenyl)-1H-pyrazol-4-yl)-1H-indol-3-yl)propanamide]"

# Second part, the compound before the results:
row,Compound,EC50
1,"O=C(Cc1cnc(N2CCC(F)(F)CC2)c(Cl)c1)Nc1c[nH]c2ccc(Br)cc12 [Compound 101, N-(5-bromo-1H-indol-3-yl)-2-(5-chloro-6-(4,4-difluoropiperidin-1-yl)pyridin-3-yl)acetamide]",200 to 1000 nM
2,"CC(C)(Oc1ccccc1)C(=O)Nc1c[nH]c2cc(F)c(F)cc12 [Compound 102, N-(5,6-difluoro-1H-indol-3-yl)-2-methyl-2-phenoxypropanamide]",5000 to 100000 nM
3,"CCOc1ccc(CC(=O)Nc2c[nH]c3cc(F)c(F)cc23)cc1C(F)(F)F [Compound 103, N-(5,6-difluoro-1H-indol-3-yl)-2-(4-ethoxy-3-(trifluoromethyl)phenyl)acetamide]",1000 to 5000 nM
4,"Cc1ccc(OC(C)(C)C(=O)Nc2c[nH]c3cc(F)c(F)cc23)nc1 [Compound 105, N-(5,6-difluoro-1H-indol-3-yl)-2-methyl-2-((5-methylpyridin-2-yl)oxy)propanamide]",5000 to 100000 nM
5,"CCOc1cccc(CCC(=O)Nc2c[nH]c3cc(F)c(F)cc23)c1 [Compound 106, N-(5,6-difluoro-1H-indol-3-yl)-3-(3-ethoxyphenyl)propanamide]",200 to 1000 nM
6,"N#Cc1cc(CC(=O)Nc2c[nH]c3cc(F)c(F)cc23)ccn1 [Compound 107, 2-(2-cyanopyridin-4-yl)-N-(5,6-difluoro-1H-indol-3-yl)acetamide]",1000 to 5000 nM
7,"COc1cccc(CCC(=O)Nc2c[nH]c3cc(F)c(F)cc23)n1 [Compound 108, N-(5,6-difluoro-1H-indol-3-yl)-3-(6-methoxypyridin-2-yl)propanamide]",5000 to 100000 nM
8,"C/C(=C\c1ccccn1)C(=O)Nc1c[nH]c2cc(F)c(F)cc12 [Compound 109, (E)-N-(5,6-difluoro-1H-indol-3-yl)-2-methyl-3-(pyridin-2-yl)acrylamide]",1000 to 5000 nM
9,"COc1ccc(/C=C(\C)C(=O)Nc2c[nH]c3cc(F)c(F)cc23)cc1 [Compound 110, (E)-N-(5,6-difluoro-1H-indol-3-yl)-3-(4-methoxyphenyl)-2-methylacrylamide]",200 to 1000 nM
10,"O=C(Nc1c[nH]c2cc(F)c(F)cc12)C1CCN(S(=O)(=O)c2ccc(F)cc2)C1 (stereo not drawn) [Compound 111, N-(5,6-difluoro-1H-indol-3-yl)-1-((4-fluorophenyl)sulfonyl)pyrrolidine-3-carboxamide]",1000 to 5000 nM
11,"COc1cccc(N2CC(C(=O)Nc3c[nH]c4cc(F)c(F)cc34)CC2=O)c1 (stereo not drawn) [Compound 112, N-(5,6-difluoro-1H-indol-3-yl)-1-(3-methoxyphenyl)-5-oxopyrrolidine-3-carboxamide]",5000 to 100000 nM
12,"O=C(Nc1c[nH]c2cc(F)c(F)cc12)C1CC(Oc2ccccc2)C1 (stereo not drawn) [Compound 114, N-(5,6-difluoro-1H-indol-3-yl)-3-phenoxycyclobutane-1-carboxamide]",1000 to 5000 nM
13,"O=C(Nc1c[nH]c2cc(F)c(F)cc12)[C@H]1CCN(C(=O)OCc2ccccc2)C1 [Compound 115, benzyl (S)-3-((5,6-difluoro-1H-indol-3-yl)carbamoyl)pyrrolidine-1-carboxylate]",5000 to 100000 nM
14,"O=C(CCc1ccc(C(F)(F)F)nc1)Nc1c[nH]c2cc(F)c(F)cc12 [Compound 117, N-(5,6-difluoro-1H-indol-3-yl)-3-(6-(trifluoromethyl)pyridin-3-yl)propanamide]",1000 to 5000 nM
15,"O=C(Nc1c[nH]c2cc(F)c(F)cc12)C1CN(Cc2ccccc2)CCO1 (stereo not drawn) [Compound 118, 4-benzyl-N-(5,6-difluoro-1H-indol-3-yl)morpholine-2-carboxamide]",1000 to 5000 nM
16,"O=C(CCc1cncc(C(F)(F)F)c1)Nc1c[nH]c2cc(F)c(F)cc12 [Compound 119, N-(5,6-difluoro-1H-indol-3-yl)-3-(5-(trifluoromethyl)pyridin-3-yl)propanamide]",1000 to 5000 nM
17,"CCOc1cccc(/C=C/C(=O)Nc2c[nH]c3cc(F)c(F)cc23)c1 [Compound 128, (E)-N-(5,6-difluoro-1H-indol-3-yl)-3-(3-ethoxyphenyl)acrylamide]",200 to 1000 nM
18,"O=C(Cc1ccc(OC(F)(F)F)cc1)Nc1c[nH]c2cc(F)c(F)cc12 [Compound 129, N-(5,6-difluoro-1H-indol-3-yl)-2-(4-(trifluoromethoxy)phenyl)acetamide]",1000 to 5000 nM
19,"CC(Oc1ccc(C(F)(F)F)cc1)C(=O)Nc1c[nH]c2cc(F)c(F)cc12 (stereo not drawn) [Compound 131, N-(5,6-difluoro-1H-indol-3-yl)-2-(4-(trifluoromethyl)phenoxy)propanamide]",1000 to 5000 nM
20,"O=C(/C=C/c1ccc(OC(F)(F)F)cc1)Nc1c[nH]c2cc(F)c(F)cc12 [Compound 136, (E)-N-(5,6-difluoro-1H-indol-3-yl)-3-(4-(trifluoromethoxy)phenyl)acrylamide]",200 to 1000 nM
21,"O=C(CCc1cnoc1)Nc1c[nH]c2ccc(-c3cnn(-c4ccc(C(F)(F)F)cc4)c3)cc12 [Compound 139, 3-(isoxazol-4-yl)-N-(5-(1-(4-(trifluoromethyl)phenyl)-1H-pyrazol-4-yl)-1H-indol-3-yl)propanamide]",200 to 1000 nM
